Experiment: Tissue distribution in tumor bearing mice
Type: in vivo, nude mice (BALB/cA) implanted with NCI-H460 tumor
Conditions: n=4
Description: The nude mice (BALB/cA) implanted with NCI-H460 tumor were provided by Shanghai Institute of Materia Medica. A total of 36 mice were divided into 9 groups with four animals in each group. After fasting overnight with free access to water, the mice were treated with 75 mg/kg C118P by i.v. The blood samples were collected at 2, 10, 20, 40 min, 1, 2, 4, 8, 12 h after treatment and the mice were anaesthetized and decapitated to obtain the blood and tumor tissue. Blood, brain, muscle, ovary, and lung from mice in the PK study were collected at 10 min, 1, 4, and 12 h. Tissues were cleaned by absorbent filter paper to remove the blood. Bloods were centrifuged at 10,000× g for 5 min. Each tissue (0.2 g) was homogenized with 2 mL water. The plasma samples and the homogenates were then processed and determined by the method described above. The concentration was determined by the calibration curve and the actual concentration was corrected by multiplying by 10 according to the dilution times. […]
4. The distribution of CA4P and CA4 in tumor bearing mice.
The nude mice (BALB/cA) implanted with NCI-H460 tumor were provided by Shanghai institute of Materia Medica. A total of 36 mice were divided into 9 groups with 4 animals in each group.
After fasted overnight with free access to water, the mice were treated with 75 mg/kg CA4P by i.v.
The blood samples were collected at 2, 10, 20, 40 min, 1, 2, 4, 8, 12 h after treatment and the mice were anaesthetized and decapitated to obtain the blood and tumor tissue. All procedure are same as C118P in the main text. The concentration was determined by the calibration curve and the actual concentration was corrected by multiplying by 10 according to the dilution times.

[1] = 0.17 h after i.v. 75 mg/kg of CA4P
[2] = 1 h after i.v. 75 mg/kg of CA4P
[3] = 4 h after i.v. 75 mg/kg of CA4P
[4] = 12 h after i.v. 75 mg/kg of CA4P

Compound	concentration in Lung [1]	concentration in Plasma [1]	concentration in Tumor [1]	concentration in brain [1]	concentration in muscle [1]	concentration in ovary [1]	concentration in Lung [2]	concentration in Plasma [2]	concentration in Tumor [2]	concentration in brain [2]	concentration in muscle [2]	concentration in ovary [2]	concentration in Lung [3]	concentration in Plasma [3]	concentration in Tumor [3]	concentration in brain [3]	concentration in muscle [3]	concentration in Tumor [4]	concentration in muscle [4]	concentration in Plasma [4]
COc1ccc(/C=C\c2cc(OC)c(OC)c(OC)c2)cc1O [CA4, Combretastain A4, reference compound]	5849.0±580.7	12540.3±972.6	9835.7±1345.9	16165.3±1211.9	8526.1±3505.7	44183.5±13169.9	759.4±242.6	595.8±277.7	4803.9±770.6	2135.9±486.2	595.6±308.4	1288.3±711.2	106.8±12.1	21.1±4.5	3677.0±1079.9	97.6±21.3	142.0±33.9	735.1±426.2	51.9±36.8	–
COc1ccc(/C=C\c2cc(OC)c(OC)c(OC)c2)cc1OP(=O)([O-])[O-].[Na+].[Na+] [CA4P, CA4 phosphate, reference compound]	–	15879.9±4473.5	142.8±49.2	–	345.2±68.9	–	–	324.9±105.2	26.5±1.4	–	–	–	–	15.0±6.8	34.5±1.9	–	–	–	–	12.6±3.3

— paper PMC6278385, “Preclinical Pharmacokinetics of C118P, a Novel Prodrug of Microtubules Inhibitor and Its Metabolite C118 in Mice, Rats, and Dogs” (Molecules, 2018)
